From patent publication US20240246916A1, “7-NITRO-8-HYDROXYQUINOLINE DERIVATIVES, PREPARATION METHOD THEREFORE AND MEDICAL USE THEREOF” (Jiangsu Yahong Meditech Co., Ltd., priority 2021, published 2024)
Converted amounts (≈) assume the structure as drawn.

Assays:
Assay type in all cases: cell-based
[1] = system: Acinetobacter baumannii (carbapenem-resistant clinical isolates; ATCC19606); assay: MIC by micro broth dilution (CLSI), Acinetobacter baumannii; conditions: Acinetobacter baumannii; for MIC50 / MIC90: ATCC19606, Clinical strain; for MIC50: read-out: MIC50; for MIC90: read-out: MIC90; for MIC: Standard strain ATCC19606, read-out: MIC
Description: (§1) The test bacteria were one strain of clinically isolated carbapenem-resistant Escherichia coli, two strains of carbapenem-resistant Acinetobacter baumannii, two strains of methicillin-resistant Staphylococcus aureus, two strains of sensitive Staphylococcus aureus, and 7 strains of Klebsiella pneumoniae. Duplicate strains isolated from the same patient were eliminated. There were also […] quality control strains Escherichia coli ATCC25922, Acinetobacter baumannii ATCC19606, Staphylococcus aureus ATCC29213, Klebsiella pneumoniae ATCC BAA-1705, ATCC 43816, ATCC BAA-2472, ATCC-BAA-1898, ATCC-BAA-1899, NCTC 13440 and ATCC-BAA-2470. There were 24 strains in total.
(§2) According to the recommendations of relevant documents of the American Clinical and Laboratory Standards Institute (CLSI), the micro broth dilution method was used to determine the MIC of the compounds of the present invention against clinically isolated strains. • 3.1 Formulation of antibacterial drug: All the compounds of the present invention were dissolved in DMSO. The drug concentration range was 128 mg/L to 0.06 mg/L. • 3.2 Culture medium: The drug susceptibility test used cation adjusted Mueller-Hinton broth (CAMHB). • 3.3 Amount of inoculum: The test bacteria cultured overnight were adjusted to 0.5 McFarland turbidity by the direct colony suspension method, and diluted 100 folds, the final inoculum amount was 10^5 CFU/mL. • 3.4 Culture conditions: The test bacteria were cultured at 35±2° C. for 20 hours in air.
(§3) The drug susceptibility test results were interpretated by reference to CLSI 2019 M100 29th edition criteria.
(§4) The quality control strains of the drug susceptibility test were Escherichia coli ATCC 25922, Acinetobacter baumannii ATCC 19606, Staphylococcus aureus ATCC 29213, Klebsiella pneumoniae ATCC BAA-1705, ATCC 43816, ATCC BAA-2472, ATCC-BAA-1898, ATCC-BAA-1899, NCTC 13440 and ATCC-BAA-2470.
(§5) The results of drug susceptibility test were statistically analyzed by WHONET software (version 5.6).

[2] = system: Escherichia coli (carbapenem-resistant clinical isolate; ATCC25922); assay: MIC by micro broth dilution (CLSI), Escherichia coli; conditions: Escherichia coli; for MIC50 / MIC90: ATCC25922, Clinical strain; for MIC50: read-out: MIC50; for MIC90: read-out: MIC90; for MIC: Standard strain ATCC25922, read-out: MIC
Description: as §1, §2, §3, §4, §5

[3] = system: Staphylococcus aureus (methicillin-resistant and sensitive clinical isolates; ATCC29213); assay: MIC by micro broth dilution (CLSI), Staphylococcus aureus; conditions: for MIC50 / MIC90: Clinical strain; for MIC50: read-out: MIC50; for MIC90: read-out: MIC90; for MIC: Standard strain ATCC29213, read-out: MIC
Description: as §1, §2, §3, §4, §5

| Structure (SMILES) | MIC50 [1] [µg/mL] | MIC90 [1] [µg/mL] | MIC50 [2] [µg/mL] | MIC90 [2] [µg/mL] | MIC [2] [µg/mL] | MIC50 [3] [µg/mL] | MIC90 [3] [µg/mL] | MIC [3] [µg/mL] | MIC [1] [µg/mL] |
| --- | --- | --- | --- | --- | --- | --- | --- | --- | --- |
| Cc1cc([N+](=O)[O-])c(O)c2ncccc12 [Example 4, 5-Methyl-7-nitroquinolin-8-ol] | 32 (≈ 157 µM) | 32 (≈ 157 µM) | – | – | – | – | – | – | – |
| CNc1c([N+](=O)[O-])c(O)c2ncccc2c1Cl [Example 7, 5-Chloro-6-(methylamino)-7-nitroquinolin-8-ol] | 32 (≈ 126 µM) | 64 (≈ 252 µM) | 64 (≈ 252 µM) | 128 (≈ 505 µM) | 64 (≈ 252 µM) | 8 (≈ 31.5 µM) | 16 (≈ 63.1 µM) | 16 (≈ 63.1 µM) | 64 (≈ 252 µM) |
| O=[N+]([O-])c1ccc2c(OC(F)F)ccnc2c1O [Example 77, 4-(difluoromethoxy)-7-nitroquinolin-8-ol] | 16 (≈ 62.5 µM) | 32 (≈ 125 µM) | 16 (≈ 62.5 µM) | 128 (≈ 500 µM) | 16 (≈ 62.5 µM) | 8 (≈ 31.2 µM) | 8 (≈ 31.2 µM) | 8 (≈ 31.2 µM) | 8 (≈ 31.2 µM) |
| C#Cc1ccnc2c(O)c([N+](=O)[O-])ccc12 [Example 80, 4-ethynyl-7-nitroquinolin-8-ol] | > 128 | > 128 | > 128 | > 128 | > 128 | 128 (≈ 598 µM) | 128 (≈ 598 µM) | 128 (≈ 598 µM) | > 128 |
| O=[N+]([O-])c1ccc2c(C(F)F)ccnc2c1O [Example 81, 4-(difluoromethyl)-7-nitroquinolin-8-ol] | 16 (≈ 66.6 µM) | 32 (≈ 133 µM) | 32 (≈ 133 µM) | 128 (≈ 533 µM) | 16 (≈ 66.6 µM) | 8 (≈ 33.3 µM) | 16 (≈ 66.6 µM) | 16 (≈ 66.6 µM) | 16 (≈ 66.6 µM) |
| O=[N+]([O-])c1ccc2c(Cl)c(-c3ccccc3)cnc2c1O [Example 82, 4-chloro-7-nitro-3-phenylquinolin-8-ol] | > 128 | > 128 | > 128 | > 128 | > 128 | 1 (≈ 3.33 µM) | 1 (≈ 3.33 µM) | 1 (≈ 3.33 µM) | 128 (≈ 426 µM) |
| Cc1cnc2c(O)c([N+](=O)[O-])cc(Cl)c2c1 [Example 83, 5-chloro-3-methyl-7-nitroquinolin-8-ol] | 32 (≈ 134 µM) | 64 (≈ 268 µM) | 128 (≈ 536 µM) | 128 (≈ 536 µM) | 32 (≈ 134 µM) | 4 (≈ 16.8 µM) | 4 (≈ 16.8 µM) | 4 (≈ 16.8 µM) | 16 (≈ 67 µM) |
| Cc1cnc2c(O)c([N+](=O)[O-])cc(C3CC3)c2c1 [Example 84, 5-cyclopropyl-3-methyl-7-nitroquinolin-8-ol] | 64 (≈ 262 µM) | 128 (≈ 524 µM) | > 128 | > 128 | 64 (≈ 262 µM) | 4 (≈ 16.4 µM) | 64 (≈ 262 µM) | 4 (≈ 16.4 µM) | 64 (≈ 262 µM) |
| O=[N+]([O-])c1ccc2c(CN3CCCCC3)ccnc2c1O [Example 85, 7-nitro-4-(piperidin-1-yl-methyl)quinolin-8-ol] | 32 (≈ 111 µM) | 64 (≈ 223 µM) | 64 (≈ 223 µM) | 64 (≈ 223 µM) | 64 (≈ 223 µM) | 16 (≈ 55.7 µM) | 64 (≈ 223 µM) | 64 (≈ 223 µM) | 32 (≈ 111 µM) |
| Cc1cnc2c(O)c([N+](=O)[O-])cc(F)c2c1 [Example 86, 5-fluoro-3-methyl-7-nitroquinolin-8-ol] | 16 (≈ 72 µM) | 32 (≈ 144 µM) | 32 (≈ 144 µM) | 32 (≈ 144 µM) | 16 (≈ 72 µM) | 8 (≈ 36 µM) | > 128 | 8 (≈ 36 µM) | 16 (≈ 72 µM) |
| O=[N+]([O-])c1cc(CN2CCOCC2)c2cccnc2c1O [Example 87, 5-(morpholinomethyl)-7-nitroquinolin-8-ol acetate] | > 128 | > 128 | > 128 | > 128 | 128 | 128 | > 128 | 128 | 128 |
| CCOC(=O)c1cnc2c(O)c([N+](=O)[O-])ccc2c1 [Example 88, ethyl 8-hydroxy-7-nitroquinoline-3-carboxylate] | > 128 | > 128 | > 128 | > 128 | > 128 | 4 (≈ 15.3 µM) | 16 (≈ 61 µM) | 16 (≈ 61 µM) | 128 (≈ 488 µM) |
| O=[N+]([O-])c1ccc2c(CN3CCOCC3)ccnc2c1O [Example 89, 4-(morpholinomethyl)-7-nitroquinolin-8-ol] | 128 (≈ 442 µM) | 128 (≈ 442 µM) | > 128 | > 128 | > 128 | 64 (≈ 221 µM) | 64 (≈ 221 µM) | 64 (≈ 221 µM) | 128 (≈ 442 µM) |
| O=[N+]([O-])c1ccc2c(C3CCNCC3)ccnc2c1O [Example 105, 7-nitro-4-(piperidin-4-yl)quinolin-8-ol] | – | – | 128 (≈ 468 µM) | > 128 | 128 (≈ 468 µM) | 128 (≈ 468 µM) | 128 (≈ 468 µM) | 128 (≈ 468 µM) | – |
| O=[N+]([O-])c1cc(F)c2cccnc2c1O [Example 106, 5-fluoro-7-nitroquinolin-8-ol] | – | – | 8 (≈ 38.4 µM) | 128 (≈ 615 µM) | 16 (≈ 76.9 µM) | 16 (≈ 76.9 µM) | 16 (≈ 76.9 µM) | 16 (≈ 76.9 µM) | – |
| Cc1c([N+](=O)[O-])c(O)c2ncccc2c1Cl [Example 107, 5-chloro-6-methyl-7-nitroquinolin-8-ol] | – | – | 64 (≈ 268 µM) | 128 (≈ 536 µM) | 32 (≈ 134 µM) | 4 (≈ 16.8 µM) | 8 (≈ 33.5 µM) | 8 (≈ 33.5 µM) | – |
| O=C(O)C(F)(F)F.O=[N+]([O-])c1cc(C(F)F)c2cccnc2c1O [Example 108, 5-(difluoromethyl)-7-nitroquinolin-8-ol trifluoroacetate] | – | – | > 128 | > 128 | > 128 | > 128 | > 128 | 128 | – |
| O=[N+]([O-])c1cc(CO)c2cccnc2c1O [Example 109, 5-(hydroxymethyl)-7-nitroquinolin-8-ol] | – | – | 32 (≈ 145 µM) | 64 (≈ 291 µM) | 64 (≈ 291 µM) | 128 (≈ 581 µM) | 128 (≈ 581 µM) | 64 (≈ 291 µM) | – |
